Experimental data published in article PMC3871601, “Potential Cooperations between Odorant-Binding Proteins of the Scarab Beetle Holotrichia oblita Faldermann (Coleoptera: Scarabaeidae)” (PLoS ONE, 2013).
Like-named read-outs stand apart in the source and are kept apart here.

Assays:
HoblOBP3 = HoblOBP3 (Holotrichia oblita, UniProt G9BWQ7); assay: biochemical; type: binding
Experimental: (§1) N-phenyl-1-naphthylamine (1-NPN) was selected as a probe to measure the affinity of the 1-NPN fluorescent ligand to proteins. A 1-cm light path quartz cuvette was used, and the fluorescence spectra were recorded on a Lengguang 970 CRT spectrofluorimeter (Shanghai Jingmi, China) at room temperature in a right angle configuration. The parameter selection was such that the slit widths for both excitation and emission were 10 nm. 1-NPN was excited at 337 nm and the emission spectra were recorded between 350 and 550 nm. Spectra were recorded using high-speed scanning.
(§2) The 2 µM protein solution was dissolved in 50 mM Tris-HCl buffer with pH 7.4, and the ligands were dissolved in chromatographically pure methanol as a 1 mM stock solution. 1-NPN was dissolved in chromatographically pure methanol as a 1 mM stock solution.
(§3) To determine the dissociation constants, the intensity values corresponding to the maximum fluorescence emission were plotted against free ligand concentrations. Assuming that the protein was 100% active and that the stoichiometric ratio between the protein and ligand was 1:1 at saturation, the bound ligand was determined from the fluorescence intensity values. The curves were then linearized using Scatchard plots. The K1-NPN values were estimated using GraphPad Prism 5 Software by nonlinear regression for a unique binding site. The dissociation constants of the competitors (Ki) were calculated from the corresponding IC50 values using the following equation: Ki = [IC50]/1+[1-NPN]/K1-NPN. […] [1-NPN] represented the free concentration of 1-NPN, and K1-NPN represented the dissociation constant of the complex protein/1-NPN [76].

HoblOBP4 = HoblOBP4 (Holotrichia oblita, UniProt G9BWQ8); assay: biochemical; type: binding; conditions: for Affinity (in words): HoblOBP4 alone
Experimental: as §1, §2, §3

[1] = system: HoblOBP2 and HoblOBP4 mixtures; assay: Competitive binding assay with binary protein mixture OBP2-OBP4; design: species or system Holotrichia oblita; conditions: HoblOBP2 and HoblOBP4 equimolar mixture and 1-NPN 2 µM, ligand 4–40 µM
Experimental: (§4) It is well known that the concentration of OBPs (also likely CSPs) in the sensillum lymph of the insect is extremely high (reportedly 10 mM). A hypothesis has been proposed that OBPs (or CSPs) homodimers or heterodimers might form. Thus, all binary potential intersections with four HoblOBPs and two HoblCSPs were tested in competitive binding assays to determine the existence of dimers. These experiments assumed that the protein was 100% active, a stoichiometric ratio between the protein and ligand was 1:1 at saturation and the two proteins were present in equimolar amounts. The binding curves and Scatchard plots of OBP3 and OBP4 mixture or CSP1 and CSP2 mixture were consistent with the functions of the individual proteins. However, the binding curve of the OBP2 and OBP4 mixture or OBP1 and OBP2 mixture presented a different tendency from those obtained with the individual proteins. […] Thus, we speculated that the decreased binding velocity was the main cause underlying this phenomenon. […] Such binding of the OBP2 and OBP4 mixture or OBP1 and OBP2 mixture in H. oblita was consistent with the OBP1 and OBP4 mixture in A. gambiae. In particular, some experiments also indicated interactions between OBP1 and OBP4 in A. gambiae. Thus, the hypothesis on a potential interaction between OBP2 and OBP4 (or OBP1 and OBP2) in H. oblita was proposed.
(§5) Figure 8 Competitive binding curves of representative ligands to binary protein mixtures OBP2-OBP4 and OBP1-OBP2 in H. oblita. The chemical structures of the ligands are shown on the right. A mixture of the proteins (equimolar amounts) and 1-NPN with both concentration of 2 µM in Tris-buffer was titrated with 1 mM solution of each competing ligand to final concentrations of 4–40 µM.
(§6) The 2 µM protein solution was dissolved in 50 mM Tris-HCl buffer with pH 7.4, and the ligands were dissolved in chromatographically pure methanol as a 1 mM stock solution. 1-NPN was dissolved in chromatographically pure methanol as a 1 mM stock solution. The protein solution was titrated to measure the protein’s affinity for the probe by adding aliquots of 1-NPN stock solution to final concentrations of 2 to 20µM.

HoblOBP2 = system: HoblOBP2; design: method as in PMID 21852709; conditions: HoblOBP2 alone; ref [13]; cited from earlier work
[2] = system: HoblOBP1 and HoblOBP2 mixtures; assay: Competitive binding assay with binary protein mixture OBP1-OBP2; design: species or system Holotrichia oblita; conditions: HoblOBP1 and HoblOBP2 equimolar mixture and 1-NPN 2 µM, ligand 4–40 µM; compared to either protein alone
Experimental: as §4, §5, §6

HoblOBP1 = system: HoblOBP1; design: method as in PMID 21852709; conditions: HoblOBP1 alone; ref [13]; cited from earlier work
[3] = pH 7.4, read-out: Int (fluorescence intensity as percent of the initial fluorescence)
[4] = HoblOBP3, dash = IC50 exceeded 50 µM, read-out: IC50 (dash)
[5] = HoblOBP3, dash = ligand whose IC50 exceeded 50 µM, Ki not given, read-out: Ki (dash)
[6] = HoblOBP4, dash = IC50 exceeded 50 µM, read-out: IC50 (dash)
[7] = HoblOBP4, dash = ligand whose IC50 exceeded 50 µM, Ki not given, read-out: Ki (dash)
[8] = pH 7.4, HoblOBP3, at the ligand concentration 24 µM, protein and 1-NPN both 2 µM, read-out: Int (fluorescence intensity as percent of the initial fluorescence)
[9] = pH 7.4, HoblOBP4, at the ligand concentration 24 µM, protein and 1-NPN both 2 µM, read-out: Int (fluorescence intensity as percent of the initial fluorescence)
[10] = HoblOBP4, calculated from IC50 and K1-NPN, read-out: Ki
[11] = HoblOBP4, protein and 1-NPN both 2 µM, ligand titrated 2–50 µM, read-out: IC50 (concentration of ligand halving the initial fluorescence intensity)

Sequence of HoblOBP4 (G9BWQ8 entry or part of it): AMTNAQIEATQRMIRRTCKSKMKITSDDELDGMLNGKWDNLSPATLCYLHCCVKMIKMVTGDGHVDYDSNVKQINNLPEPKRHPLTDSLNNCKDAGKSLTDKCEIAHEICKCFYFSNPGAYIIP
Sequence of HoblOBP3 (G9BWQ7 entry or part of it): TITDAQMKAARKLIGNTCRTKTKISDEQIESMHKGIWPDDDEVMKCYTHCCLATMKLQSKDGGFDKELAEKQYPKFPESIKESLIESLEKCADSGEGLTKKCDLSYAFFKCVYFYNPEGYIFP

Compound	IC50 (HoblOBP3; [4]) [µM]	Ki (HoblOBP3; [5]) [µM]	activity at 24 µM (HoblOBP3; [8]) [%]	activity at 24 µM (HoblOBP4; [9]) [%]	IC50 (HoblOBP3) [µM]	Ki (HoblOBP3) [µM]	activity at 24 µM (HoblOBP3; [3]) [%]	IC50 (HoblOBP4) [µM]	Ki (HoblOBP4) [µM]	activity at 24 µM (HoblOBP4; [3]) [%]	Affinity (in words) (HoblOBP2)	other results
CC(=O)/C=C/C1=C(C)CCCC1(C)C [β-Ionone]	–	–	–	–	8	5.2	36	15	11	42	good afﬁnity	Affinity (in words) (HoblOBP4): good afﬁnity; Affinity (in words) [1]: enhanced affinity
CC1=C(/C=C/C(C)=C/C=C/C(C)=C/CO)C(C)(C)CCC1 [Retinol]	> 50	> 50	–	–	–	–	–	–	–	–	low-afﬁnity or non-afﬁnity	IC50 (HoblOBP4; [6]): > 50 µM; Ki (HoblOBP4; [7]): > 50 µM; Affinity (in words) (HoblOBP4): no afﬁnity; Affinity (in words) [1]: good affinity
C=CCc1ccc(O)c(OC)c1 [Eugenol]	–	–	–	–	> 50	> 50	97	> 50	> 50	57	low-afﬁnity or non-afﬁnity	Affinity (in words) (HoblOBP4): no afﬁnity; Affinity (in words) [1]: good affinity
C=C[C@](C)(O)CCC=C(C)C [R-(-)-Linalool]	–	–	–	–	> 50	> 50	73	20	14.7	46	low-afﬁnity or non-afﬁnity	Affinity (in words) [2]: enhanced affinity; Affinity (in words) (HoblOBP1): low-afﬁnity or non-afﬁnity
O=C/C=C/c1ccccc1 [Cinnamaldehyde]	–	–	–	–	46	30	64	9	6.6	36	low-afﬁnity or non-afﬁnity	Affinity (in words) (HoblOBP4): good afﬁnity; Affinity (in words) [1]: good affinity
CCC/C=C/CO [trans-2-Hexenol]	–	–	82	51	> 50	> 50	–	24	17.7	–	low-afﬁnity or non-afﬁnity	Affinity (in words) [2]: enhanced affinity; Affinity (in words) (HoblOBP1): low-afﬁnity or non-afﬁnity
CC1=CC[C@@H](C(C)(C)O)CC1 [α-Terpineol]	–	–	–	–	> 50	> 50	71	35.5	26.1	53	low-afﬁnity or non-afﬁnity	Affinity (in words) [2]: enhanced affinity; Affinity (in words) (HoblOBP1): low-afﬁnity or non-afﬁnity
CCC/C=C\CO [cis-2-Hexen-1-ol]	–	–	70	42	> 50	> 50	–	14	10.3	–	–	–
CC(C)(C)C1CCC(O)CC1 (stereo not drawn) [4-tert-Butyl cyclohexanol]	> 50	> 50	68	49	–	–	–	–	–	–	–	Ki (HoblOBP4; [10]): 14 µM; IC50 (HoblOBP4; [11]): 19 µM
CC1=CCC(O)(C(C)C)CC1 (stereo not drawn) [Terpinen-4-ol]	–	–	–	–	> 50	> 50	75	21	15.4	48	–	–
CC(C)=CCC/C(C)=C/CO [Geraniol]	–	–	–	–	> 50	> 50	79	16	11.8	44	–	–
CC(=O)/C=C/C1C(C)=CCCC1(C)C (stereo not drawn) [α-Ionone]	–	–	–	–	16	10.4	41	19	14	45	–	–
O=CCc1ccccc1 [Benzeneacetaldehyde]	> 50	> 50	–	–	–	–	–	–	–	–	–	IC50 (HoblOBP4; [6]): > 50 µM; Ki (HoblOBP4; [7]): > 50 µM

Continued, in another order:

IC50 (HoblOBP3; [4]) [µM]	Ki (HoblOBP3; [5]) [µM]	activity at 24 µM (HoblOBP3; [8]) [%]	activity at 24 µM (HoblOBP4; [9]) [%]	Compound	IC50 (HoblOBP3) [µM]	Ki (HoblOBP3) [µM]	activity at 24 µM (HoblOBP3; [3]) [%]	IC50 (HoblOBP4) [µM]	Ki (HoblOBP4) [µM]	activity at 24 µM (HoblOBP4; [3]) [%]	Affinity (in words) (HoblOBP2)	other results
> 50	> 50	65	64	CCCCCCC=O [1-Heptanal]	–	–	–	–	–	–	low-afﬁnity or non-afﬁnity	IC50 (HoblOBP4; [6]): > 50 µM; Ki (HoblOBP4; [7]): > 50 µM; Affinity (in words) [2]: enhanced affinity; Affinity (in words) (HoblOBP1): low-afﬁnity or non-afﬁnity
> 50	> 50	78	56	CC/C=C\CCOC(C)=O [(Z)-3-Hexenyl acetate]	–	–	–	–	–	–	–	Ki (HoblOBP4; [10]): 29.4 µM; IC50 (HoblOBP4; [11]): 40 µM
> 50	> 50	–	–	CCCCCCCCCC [Decane]	–	–	–	–	–	–	–	IC50 (HoblOBP4; [6]): > 50 µM; Ki (HoblOBP4; [7]): > 50 µM
> 50	> 50	–	–	CCOC(=O)[C@@H]1CCCN1 [L-Proline ethyl ester]	–	–	–	–	–	–	–	Int (fluorescence intensity as percent of the initial fluorescence) (HoblOBP3; HoblOBP3, at the ligand concentration 24 µM, protein and 1-NPN both 2 µM): 70%; Int (fluorescence intensity as percent of the initial fluorescence) (HoblOBP4; HoblOBP4, at the ligand concentration 24 µM, protein and 1-NPN both 2 µM): 47%; Ki (HoblOBP4; [10]): 14.7 µM; IC50 (HoblOBP4; [11]): 20 µM
–	–	65	44	CCCCC=O [1-Pentanal]	–	–	–	–	–	–	–	Ki (HoblOBP3; HoblOBP3, calculated from IC50 and K1-NPN, read-out: Ki): 26.8 µM; IC50 (HoblOBP3; HoblOBP3, protein and 1-NPN both 2 µM, ligand titrated 2–50 µM, read-out: IC50 (concentration of ligand halving the initial fluorescence intensity)): 41 µM; Ki (HoblOBP4; [10]): 11.8 µM; IC50 (HoblOBP4; [11]): 16 µM
> 50	> 50	76	50	CCOC(=O)CN [Glycine ethyl ester]	–	–	–	–	–	–	–	IC50 (HoblOBP4; [11]): 24 µM
> 50	> 50	53	36	CCCCCCOC(=O)c1ccccc1 [Hexyl benzoate]	–	–	–	–	–	–	–	Ki (HoblOBP4; [10]): 2.9 µM; IC50 (HoblOBP4; [11]): 4 µM
> 50	> 50	–	–	CCCCCCCCC [Nonane]	–	–	–	–	–	–	–	IC50 (HoblOBP4; [6]): > 50 µM; Ki (HoblOBP4; [7]): > 50 µM
> 50	> 50	86	68	CCCCCCCCCC=O [1-Decanal]	–	–	–	–	–	–	–	IC50 (HoblOBP4; [6]): > 50 µM; Ki (HoblOBP4; [7]): > 50 µM
